This is an account of results in US4551445A, “Derivatives of arginine vasopressin antagonists” (The Medical College of Ohio, priority 1983, dated 1985).

Structures are written as SMILES. Starred links: 1 amine or outer side, 2 acyl side, 3 side chain; linkers in the order of their positions; H or OH if unused. Positions of bridges follow the written chain, without caps; N, C: chain ends. Non-standard residues stand in square brackets, D forms with d. Residues, ends and D or L forms follow the SMILES beside them. X1 = O=C(CC1(S[*:2])CCCCC1)[*:1]; Cha = N[C@@H](CC1CCCCC1)C(=O)O; Nle = CCCC[C@H](N)C(=O)O; Orn = NCCC[C@H](N)C(=O)O; Nva = CCC[C@H](N)C(=O)O; Abu = CC[C@H](N)C(=O)O

For this assay, the system named is antidiuretic response to arginine vasopressin (ADH). Description: Anti-antidiuretic: antagonism of the antidiuretic response to subsequent injections of vasopressin. The format is in vivo, rats. Here is the method: Activity as antidiuretic agonists was determined by intravenous injection of the compounds being evaluated in ethanol-anesthesized water-loaded rats in accordance with Sawyer, Endocrinology, vol. 63 (1958) at 694. Antagonism of the response to subsequent injections of vasopressin was tested as described by Sawyer et al., Science, vol. 212 (1981) at 49.
Antagonistic potencies were determined and expressed as "effective doses" and pA2 values. The "effective dose" is defined as the dose (in nanomoles per kilogram) that reduces the response seen from 2x units of agonist injected 20 min after the dose of antagonist to the response with 1x units of agonist. Estimated in vivo "pA2 " values represent the negative logarithms of the effective doses, divided by the estimated volume of distribution (67 ml/kg).

Where [1] appears, read: Table 2, estimated in vivo pA2, volume of distribution 67 ml/kg.

Consider `CC[C@@H](C)[C@H]1NC(=O)CC2(CCCCC2)SSC[C@@H](C(=O)N2CCC[C@H]2C(=O)N[C@@H](CCCNC(=N)N)C(=O)NCC(N)=O)NC(=O)[C@H](CC(N)=O)NC(=O)[C@H](C)NC(=O)[C@H](Cc2ccccc2)NC1=O` [d(CH2)5 D-Ile^2 Ala^4 AVP, [1-(β-mercapto-β,β-cyclopentamethylenepropionic acid), 2-D-isoleucine, 4-alanine]-arginine vasopressin] ([dI]FANCPRG-NH2; linker N-5 via X1), for which the “Anti-Antidiuretic pA2” value under setting [1] was 7.76.
Same read-out and setting: then `N=C(N)NCCC[C@H](NC(=O)[C@@H]1CCCN1C(=O)[C@@H]1CSSC2(CCCCC2)CC(=O)N[C@H](Cc2ccccc2)C(=O)N[C@@H](Cc2ccccc2)C(=O)NCC(=O)N[C@@H](CC(N)=O)C(=O)N1)C(=O)NCC(N)=O` [d(CH2)5 D-Phe^2 Gly^4 AVP, [1-(β-mercapto-β,β-cyclopentamethylenepropionic acid), 2-D-phenylalanine, 4-glycine]-arginine vasopressin] ([dF]FGNCPRG-NH2; linker N-5 via X1), with 5.85; and `CCCC[C@@H]1NC(=O)[C@H](Cc2ccccc2)NC(=O)[C@@H](Cc2ccccc2)NC(=O)CC2(CCCCC2)SSC[C@@H](C(=O)N2CCC[C@H]2C(=O)N[C@@H](CCCNC(=N)N)C(=O)NCC(N)=O)NC(=O)[C@H](CC(N)=O)NC1=O` [d(CH2)5 D-Phe^2 Nle^4 AVP, [1-(β-mercapto-β,β-cyclopentamethylenepropionic acid), 2-D-phenylalanine, 4-norleucine]-arginine vasopressin] ([dF]F[Nle]NCPRG-NH2; linker N-5 via X1), with 7.12; and `CC[C@@H](C)[C@H]1NC(=O)CC2(CCCCC2)SSC[C@@H](C(=O)N2CCC[C@H]2C(=O)N[C@@H](CCCNC(=N)N)C(=O)NCC(N)=O)NC(=O)[C@H](CC(N)=O)NC(=O)[C@H](C(C)C)NC(=O)[C@H](Cc2ccccc2)NC1=O` [d(CH2)5 D-Ile^2 VAVP, [1-(β-mercapto-β,β-cyclopentamethylenepropionic acid), 2-D-isoleucine, 4-valine]-arginine vasopressin] ([dI]FVNCPRG-NH2; linker N-5 via X1), with 7.98.
Consider `CC[C@@H](C)[C@H]1NC(=O)CC2(CCCCC2)SSC[C@@H](C(=O)N2CCC[C@H]2C(=O)N[C@@H](CCCN)C(=O)NCC(N)=O)NC(=O)[C@H](CC(N)=O)NC(=O)[C@H](C(C)C)NC(=O)[C@H](Cc2ccccc2)NC1=O` [d(CH2)5 D-Ile^2 Val^4 Orn^8 VP] ([dI]FVNCP[Orn]G-NH2; linker N-5 via X1), for which the “Anti-Antidiuretic pA2” value under setting [1] is reported as 7.66.
On to `N=C(N)NCCC[C@H](NC(=O)[C@@H]1CCCN1C(=O)[C@@H]1CSSC2(CCCCC2)CC(=O)N[C@H](Cc2ccccc2)C(=O)N[C@@H](Cc2ccccc2)C(=O)N[C@@H](Cc2ccc(O)cc2)C(=O)N[C@@H](CC(N)=O)C(=O)N1)C(=O)NCC(N)=O` [d(CH2)5 D-Phe^2 Tyr^4 AVP, [1-(β-mercapto-β,β-cyclopentamethylenepropionic acid), 2-D-phenylalanine, 4-tyrosine]-arginine vasopressin] ([dF]FYNCPRG-NH2; linker N-5 via X1), for which the “Anti-Antidiuretic pA2” value under setting [1] was ~ 5.57.
`CC[C@@H](C)[C@H]1NC(=O)CC2(CCCCC2)SSC[C@@H](C(=O)N2CCC[C@H]2C(=O)N[C@@H](CCCNC(=N)N)C(=O)NCC(N)=O)NC(=O)[C@H](CC(N)=O)NC(=O)[C@H](CC(C)C)NC(=O)[C@H](Cc2ccccc2)NC1=O` [d(CH2)5 D-Ile^2 Leu^4 AVP, [1-(β-mercapto-β,β-cyclopentamethylenepropionic acid), 2-D-isoleucine, 4-leucine]-arginine vasopressin] ([dI]FLNCPRG-NH2; linker N-5 via X1): the “Anti-Antidiuretic pA2” value under setting [1] is 6.80.
The same measure, in the same setting: then `CCC[C@@H]1NC(=O)[C@H](Cc2ccccc2)NC(=O)[C@@H](Cc2ccccc2)NC(=O)CC2(CCCCC2)SSC[C@@H](C(=O)N2CCC[C@H]2C(=O)N[C@@H](CCCNC(=N)N)C(=O)NCC(N)=O)NC(=O)[C@H](CC(N)=O)NC1=O` [d(CH2)5 D-Phe^2 Nva^4 AVP, [1-(β-mercapto-β,β-cyclopentamethylenepropionic acid), 2-D-phenylalanine, 4-norvaline]-arginine vasopressin] ([dF]F[Nva]NCPRG-NH2; linker N-5 via X1), with 6.99.
As for `CCOc1ccc(C[C@@H]2NC(=O)CC3(CCCCC3)SSC[C@@H](C(=O)N3CCC[C@H]3C(=O)N[C@@H](CCCCN)C(=O)NCC(N)=O)NC(=O)[C@H](CC(N)=O)NC(=O)[C@H](C(C)C)NC(=O)[C@H](Cc3ccccc3)NC2=O)cc1` [d(CH2)5 Tyr(Et)^2 Val^4 Lys^8 VP] (Y(Et)FVNCPKG-NH2; linker N-5 via X1), the “Anti-Antidiuretic pA2” value (rat, in vivo) stood at 7.29.
Take `CC(C)[C@@H]1NC(=O)[C@H](Cc2ccccc2)NC(=O)[C@@H](Cc2ccc(O)cc2)NC(=O)CC2(CCCCC2)SSC[C@@H](C(=O)N2CCC[C@H]2C(=O)N[C@@H](CCCNC(=N)N)C(=O)NCC(N)=O)NC(=O)[C@H](CC(N)=O)NC1=O` [d(CH2)5 --D-TyrVAVP, [1-(β-mercapto-β,β-cyclopentamethylenepropionic acid), 2-D-tyrosine, 4-valine]-arginine vasopressin] ([dY]FVNCPRG-NH2; linker N-5 via X1): the “Anti-Antidiuretic pA2” value (Table 1, estimated in vivo pA2, volume of distribution 67 ml/kg) is recorded as 7.51 ± 0.08.
Turning to `N=C(N)NCCC[C@H](NC(=O)[C@@H]1CCCN1C(=O)[C@@H]1CSSC2(CCCCC2)CC(=O)N[C@H](Cc2ccccc2)C(=O)N[C@@H](Cc2ccccc2)C(=O)N[C@@H](CCCCN)C(=O)N[C@@H](CC(N)=O)C(=O)N1)C(=O)NCC(N)=O` [d(CH2)5 D-Phe^2 Lys^4 AVP, [1-(β-mercapto-β,β-cyclopentamethylenepropionic acid), 2-D-phenylalanine, 4-lysine]-arginine vasopressin] ([dF]FKNCPRG-NH2; linker N-5 via X1), under setting [1], the “Anti-Antidiuretic pA2” value is listed as 7.22.
Take `CC(C)C[C@@H]1NC(=O)[C@H](Cc2ccccc2)NC(=O)[C@@H](Cc2ccccc2)NC(=O)CC2(CCCCC2)SSC[C@@H](C(=O)N2CCC[C@H]2C(=O)N[C@@H](CCCNC(=N)N)C(=O)NCC(N)=O)NC(=O)[C@H](CC(N)=O)NC1=O` [d(CH2)5 D-Phe^2 Leu^4 AVP, [1-(β-mercapto-β,β-cyclopentamethylenepropionic acid), 2-D-phenylalanine, 4-leucine]-arginine vasopressin] ([dF]FLNCPRG-NH2; linker N-5 via X1): the “Anti-Antidiuretic pA2” value under setting [1] is recorded as 6.07.
`N=C(N)NCCC[C@H](NC(=O)[C@@H]1CCCN1C(=O)[C@@H]1CSSC2(CCCCC2)CC(=O)N[C@H](Cc2ccccc2)C(=O)N[C@@H](Cc2ccccc2)C(=O)N[C@@H](CCC(N)=O)C(=O)N[C@@H](CC(N)=O)C(=O)N1)C(=O)NCC(N)=O` [d(CH2)5 D-Phe^2 AVP, [1-(β-mercapto-β,β-cyclopentamethylenepropionic acid), 2-D-phenylalanine]-arginine vasopressin] ([dF]FQNCPRG-NH2; linker N-5 via X1): under setting [1], the “Anti-Antidiuretic pA2” value is 7.21.
Consider `CC[C@@H]1NC(=O)[C@H](Cc2ccccc2)NC(=O)[C@@H]([C@H](C)CC)NC(=O)CC2(CCCCC2)SSC[C@@H](C(=O)N2CCC[C@H]2C(=O)N[C@@H](CCCNC(=N)N)C(=O)NCC(N)=O)NC(=O)[C@H](CC(N)=O)NC1=O` [d(CH2)5 D-Ile^2 Abu^4 AVP, [1-(β-mercapto-β,β-cyclopentamethylenepropionic acid), 2-D-isoleucine, 4-α-aminobutyric acid]-arginine vasopressin] ([dI]F[Abu]NCPRG-NH2; linker N-5 via X1), for which the “Anti-Antidiuretic pA2” value under setting [1] is given as 8.22.
On to `C[C@@H]1NC(=O)[C@H](Cc2ccccc2)NC(=O)[C@@H](Cc2ccccc2)NC(=O)CC2(CCCCC2)SSC[C@@H](C(=O)N2CCC[C@H]2C(=O)N[C@@H](CCCNC(=N)N)C(=O)NCC(N)=O)NC(=O)[C@H](CC(N)=O)NC1=O` [d(CH2)5 D-Phe^2 Ala^4 AVP, [1-(β-mercapto-β,β-cyclopentamethylenepropionic acid), 2-D-phenylalanine, 4-alanine]-arginine vasopressin] ([dF]FANCPRG-NH2; linker N-5 via X1), for which the “Anti-Antidiuretic pA2” value under setting [1] is reported as 7.52.
Take `N=C(N)NCCC[C@H](NC(=O)[C@@H]1CCCN1C(=O)[C@@H]1CSSC2(CCCCC2)CC(=O)N[C@H](Cc2ccccc2)C(=O)N[C@@H](Cc2ccccc2)C(=O)N[C@@H](CC2CCCCC2)C(=O)N[C@@H](CC(N)=O)C(=O)N1)C(=O)NCC(N)=O` [d(CH2)5 D-Phe^2 Cha^4 AVP, [1-(β-mercapto-β,β-cyclopentamethylenepropionic acid), 2-D-phenylalanine, 4-cyclohexylalanine]-arginine vasopressin] ([dF]F[Cha]NCPRG-NH2; linker N-5 via X1): the “Anti-Antidiuretic pA2” value under setting [1] is recorded as 7.19.
On to `CCOc1ccc(C[C@H]2NC(=O)CC3(CCCCC3)SSC[C@@H](C(=O)N3CCC[C@H]3C(=O)N[C@@H](CCCCN)C(=O)NCC(N)=O)NC(=O)[C@H](CC(N)=O)NC(=O)[C@H](C(C)C)NC(=O)[C@H](Cc3ccccc3)NC2=O)cc1` [d(CH2)5 D-Tyr(Et)^2 Val^4 Lys^8 VP] ([dY](Et)FVNCPKG-NH2; linker N-5 via X1), for which the “Anti-Antidiuretic pA2” value (rat, in vivo) amounted to 7.72.
Take `C[C@@H](O)[C@@H]1NC(=O)[C@H](Cc2ccccc2)NC(=O)[C@@H](Cc2ccccc2)NC(=O)CC2(CCCCC2)SSC[C@@H](C(=O)N2CCC[C@H]2C(=O)N[C@@H](CCCNC(=N)N)C(=O)NCC(N)=O)NC(=O)[C@H](CC(N)=O)NC1=O` [d(CH2)5 D-Phe^2 Thr^4 AVP, [1-(β-mercapto-β,β-cyclopentamethylenepropionic acid), 2-D-phenylalanine, 4-threonine]-arginine vasopressin] ([dF]FTNCPRG-NH2; linker N-5 via X1): the “Anti-Antidiuretic pA2” value under setting [1] was 7.62.
